Series [1] in a line: Drug uptake in DNase-1 treated human HepG2 cell nucleus at 3 uM after 30 mins by H33258.staining based confocal microscopic method. Conditions: hepg2, 0.5 h; call rule not given here. It counts as ADME, subcellular.
A further series relates to dsDNA. The series is described as follows: Binding affinity to 26-mer duplex DNA (unknown origin) assessed as absorption maximum at 5 uM after 5 mins by fluorescence titration method (reference value: 453 nanometer). It counts as nucleic-acid assay.

Molecules are shown by their SMILES.

Take `CCn1c2ccccc2c2cc(/C=C/c3sc4ccccc4[n+]3CC)ccc21.[I-]`: the Drug uptake result in series [1] is “Not Active”. Moreover, in the series on dsDNA, the Activity stood at 470 nm.

The values are drawn from ChEMBL document CHEMBL4184182, “Studies on interactions of carbazole derivatives with DNA, cell image, and cytotoxicity” (Bioorg Med Chem, 2018).
